The NIST ThermoML archive (doi:10.1016/j.jct.2011.07.021)
Numbers after ± are expanded uncertainties.

Experiments:
[1] = relative permittivity at zero frequency (dimensionless); xn = mol fraction of the nth substance listed; settings: 101 kPa, Liquid, Parallel plate capacitor
[2] = refractive index (Na D-line) (dimensionless); xn = mol fraction of the nth substance listed; settings: 101 kPa, Liquid, Standard Abbe refractometry

CCC(O)CO (configuration not stated) [1,2-butanediol] + C1COCCO1
Settings	refractive index, 298.2 K	refractive index, 308.2 K	refractive index, 318.2 K	relative permittivity at zero frequency, 298.2 K	relative permittivity at zero frequency, 308.2 K	relative permittivity at zero frequency, 318.2 K
[1], x1 = 0.099	–	–	–	3.127 ± 0.022	3.015 ± 0.02	2.92 ± 0.019
[1], x1 = 0.148	–	–	–	3.659 ± 0.025	3.496 ± 0.024	3.359 ± 0.022
[1], x1 = 0.197	–	–	–	4.254 ± 0.027	4.064 ± 0.026	3.875 ± 0.024
[1], x1 = 0.246	–	–	–	4.882 ± 0.03	4.632 ± 0.029	4.406 ± 0.025
[1], x1 = 0.299	–	–	–	5.685 ± 0.033	5.407 ± 0.031	5.046 ± 0.028
[1], x1 = 0.349	–	–	–	6.472 ± 0.036	6.079 ± 0.031	5.696 ± 0.03
[1], x1 = 0.401	–	–	–	7.376 ± 0.039	6.854 ± 0.036	6.419 ± 0.033
[1], x1 = 0.448	–	–	–	8.243 ± 0.041	7.732 ± 0.039	7.193 ± 0.035
[1], x1 = 0.51	–	–	–	9.466 ± 0.043	8.817 ± 0.04	8.122 ± 0.035
[1], x1 = 0.55	–	–	–	10.263 ± 0.047	9.592 ± 0.044	8.783 ± 0.04
[1], x1 = 0.611	–	–	–	11.646 ± 0.05	10.84 ± 0.046	9.908 ± 0.043
[1], x1 = 0.685	–	–	–	13.401 ± 0.054	12.41 ± 0.05	11.301 ± 0.047
[1], x1 = 0.788	–	–	–	16.007 ± 0.058	14.739 ± 0.054	13.469 ± 0.051
[1], x1 = 0.855	–	–	–	17.761 ± 0.063	16.335 ± 0.058	15.027 ± 0.055
[1], x1 = 0.907	–	–	–	19.272 ± 0.067	17.748 ± 0.063	16.307 ± 0.058
[1], x1 = 0.96	–	–	–	20.867 ± 0.071	19.214 ± 0.066	17.628 ± 0.06
[1], x1 = 1	–	–	–	22.143 ± 0.037	20.365 ± 0.036	18.661 ± 0.036
[2], x1 = 0.099	1.4212 ± 0.0004	1.416 ± 0.0004	1.4103 ± 0.0004	–	–	–
[2], x1 = 0.148	1.4221 ± 0.0004	1.4166 ± 0.0004	1.4115 ± 0.0004	–	–	–
[2], x1 = 0.197	1.4227 ± 0.0004	1.4173 ± 0.0004	1.4124 ± 0.0004	–	–	–
[2], x1 = 0.246	1.4236 ± 0.0004	1.4182 ± 0.0004	1.4133 ± 0.0004	–	–	–
[2], x1 = 0.299	1.4242 ± 0.0004	1.4189 ± 0.0004	1.4142 ± 0.0004	–	–	–
[2], x1 = 0.349	1.4253 ± 0.0004	1.42 ± 0.0004	1.415 ± 0.001	–	–	–
[2], x1 = 0.401	1.4259 ± 0.0004	1.4208 ± 0.0004	1.4162 ± 0.0004	–	–	–
[2], x1 = 0.448	1.4268 ± 0.0004	1.4218 ± 0.0004	1.4168 ± 0.0004	–	–	–
[2], x1 = 0.51	1.428 ± 0.0004	1.4231 ± 0.0004	1.4177 ± 0.0004	–	–	–
[2], x1 = 0.55	1.4287 ± 0.0005	1.4237 ± 0.0005	1.4191 ± 0.0005	–	–	–
[2], x1 = 0.611	1.4297 ± 0.0005	1.4248 ± 0.0005	1.4203 ± 0.0005	–	–	–
[2], x1 = 0.685	1.4311 ± 0.0005	1.4263 ± 0.0005	1.4218 ± 0.0005	–	–	–
[2], x1 = 0.788	1.433 ± 0.0005	1.4285 ± 0.0005	1.4236 ± 0.0005	–	–	–
[2], x1 = 0.855	1.4341 ± 0.0005	1.4295 ± 0.0005	1.4253 ± 0.0005	–	–	–
[2], x1 = 0.907	1.4353 ± 0.0005	1.4307 ± 0.0005	1.4265 ± 0.0005	–	–	–
[2], x1 = 0.96	1.436 ± 0.0005	1.432 ± 0.0005	1.4278 ± 0.0005	–	–	–
[2], x1 = 1	1.4372 ± 0.0005	1.433 ± 0.0005	1.4288 ± 0.0005	–	–	–

CCCCC(CC)CO (configuration not stated) [2-ethyl-1-hexanol] + CCC(O)CO
Settings	refractive index, 298.2 K	refractive index, 308.2 K	refractive index, 318.2 K	relative permittivity at zero frequency, 298.2 K	relative permittivity at zero frequency, 308.2 K	relative permittivity at zero frequency, 318.2 K
[1], x2 = 0	–	–	–	7.353 ± 0.022	6.362 ± 0.021	5.52 ± 0.02
[1], x2 = 0.111	–	–	–	7.683 ± 0.021	6.922 ± 0.021	6.232 ± 0.021
[1], x2 = 0.199	–	–	–	8.152 ± 0.022	7.52 ± 0.023	6.851 ± 0.022
[1], x2 = 0.291	–	–	–	8.91 ± 0.02	8.32 ± 0.024	7.636 ± 0.024
[1], x2 = 0.345	–	–	–	9.464 ± 0.027	8.8 ± 0.027	8.14 ± 0.026
[1], x2 = 0.399	–	–	–	10.065 ± 0.029	9.44 ± 0.029	8.701 ± 0.029
[1], x2 = 0.448	–	–	–	10.678 ± 0.031	9.995 ± 0.03	9.312 ± 0.03
[1], x2 = 0.501	–	–	–	11.404 ± 0.035	10.69 ± 0.032	9.954 ± 0.032
[1], x2 = 0.563	–	–	–	12.382 ± 0.038	11.556 ± 0.036	10.873 ± 0.034
[1], x2 = 0.625	–	–	–	13.435 ± 0.04	12.625 ± 0.039	11.819 ± 0.037
[1], x2 = 0.667	–	–	–	14.198 ± 0.044	13.357 ± 0.041	12.559 ± 0.041
[1], x2 = 0.702	–	–	–	14.955 ± 0.045	14.023 ± 0.044	13.21 ± 0.04
[1], x2 = 0.75	–	–	–	15.885 ± 0.05	15.005 ± 0.047	14.022 ± 0.044
[1], x2 = 0.814	–	–	–	17.454 ± 0.054	16.338 ± 0.048	15.347 ± 0.046
[1], x2 = 0.897	–	–	–	19.447 ± 0.059	18.115 ± 0.051	16.989 ± 0.044
[2], x2 = 0	1.4293 ± 0.0004	1.4252 ± 0.0004	1.4213 ± 0.0004	–	–	–
[2], x2 = 0.111	1.4295 ± 0.0004	1.4254 ± 0.0004	1.4215 ± 0.0004	–	–	–
[2], x2 = 0.199	1.4295 ± 0.0004	1.4257 ± 0.0004	1.4219 ± 0.0004	–	–	–
[2], x2 = 0.291	1.4299 ± 0.0004	1.4259 ± 0.0004	1.4222 ± 0.0004	–	–	–
[2], x2 = 0.345	1.4301 ± 0.0004	1.4261 ± 0.0004	1.4225 ± 0.0004	–	–	–
[2], x2 = 0.399	1.4303 ± 0.0004	1.4265 ± 0.0004	1.4228 ± 0.0004	–	–	–
[2], x2 = 0.448	1.4307 ± 0.0004	1.4269 ± 0.0004	1.423 ± 0.0004	–	–	–
[2], x2 = 0.501	1.431 ± 0.001	1.4272 ± 0.0004	1.4234 ± 0.0004	–	–	–
[2], x2 = 0.563	1.4313 ± 0.0004	1.4275 ± 0.0004	1.4237 ± 0.0004	–	–	–
[2], x2 = 0.625	1.432 ± 0.001	1.4281 ± 0.0005	1.4241 ± 0.0005	–	–	–
[2], x2 = 0.667	1.4323 ± 0.0005	1.4284 ± 0.0005	1.4245 ± 0.0005	–	–	–
[2], x2 = 0.702	1.4327 ± 0.0005	1.4289 ± 0.0005	1.4249 ± 0.0005	–	–	–
[2], x2 = 0.75	1.4335 ± 0.0005	1.4295 ± 0.0005	1.4253 ± 0.0005	–	–	–
[2], x2 = 0.814	1.4342 ± 0.0005	1.4303 ± 0.0005	1.4259 ± 0.0005	–	–	–
[2], x2 = 0.897	1.4354 ± 0.0005	1.4314 ± 0.0005	1.427 ± 0.0005	–	–	–
